Assays:
Assay in all cases: relative viability (nuclei count vs DMSO), 5 days (fraction); higher = more cells survive
Zosuquidar + Phenformin = compound: O[C@@H](COc1cccc2ncccc12)CN1CCN([C@@H]2c3ccccc3[C@@H]3[C@H](c4ccccc42)C3(F)F)CC1 [Zosuquidar] + N=C(N)NC(=N)NCCc1ccccc1 [Phenformin] (partner 250 µM)
How it was run: (§1)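 One day after seeding in 1536-well plates, lung cancer cell lines were dosed by pin tool. Dosing was either single-drug or a fixed anchor-drug dose plus five library-drug doses (not always all listed) in √10 steps. After 5 days, nuclei were stained in one fix-and-stain step and counted on 4× images, and relative viability is the nuclei count of treated wells over that of vehicle wells, given as the median of duplicate plates.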

[1] = compound: COc1cc2nccc(Oc3ccc(NC(=O)C4(C(=O)Nc5ccc(F)cc5)CC4)cc3)c2cc1OC [Cabozantinib] + Nc1ncn([C@H]2C[C@H](O)[C@@H](CO)O2)c(=O)n1 [Decitabine] (partner 2 µM)
How it was run: as §1

Kobe2602 + Alpelisib = compound: C1=CC(=CC=C1NC(=S)NNC2=C(C=C(C=C2[N+](=O)[O-])C(F)(F)F)[N+](=O)[O-])F [Kobe2602] + Cc1nc(NC(=O)N2CCC[C@H]2C(N)=O)sc1-c1ccnc(C(C)(C)C(F)(F)F)c1 [Alpelisib] (partner 2 µM)
How it was run: as §1

Zosuquidar + Pictilisib = compound: O[C@@H](COc1cccc2ncccc12)CN1CCN([C@@H]2c3ccccc3[C@@H]3[C@H](c4ccccc42)C3(F)F)CC1 [Zosuquidar] + CS(=O)(=O)N1CCN(Cc2cc3nc(-c4cccc5[nH]ncc45)nc(N4CCOCC4)c3s2)CC1 [Pictilisib] (partner 1 µM)
How it was run: as §1

Cell Line | relative viability (Zosuquidar + Phenformin; first compound 0.01 µM) | relative viability (Zosuquidar + Phenformin; first compound 0.03162 µM) | relative viability (Zosuquidar + Phenformin; first compound 0.1 µM) | relative viability (Zosuquidar + Phenformin; first compound 0.3162 µM) | relative viability (Zosuquidar + Phenformin; first compound 1 µM) | relative viability ([1]; first compound 0.02 µM) | relative viability ([1]; first compound 0.06325 µM) | relative viability ([1]; first compound 0.2 µM) | relative viability ([1]; first compound 0.6325 µM) | relative viability ([1]; first compound 2 µM) | relative viability (Kobe2602 + Alpelisib; first compound 0.2 µM) | relative viability (Kobe2602 + Alpelisib; first compound 0.6325 µM) | relative viability (Kobe2602 + Alpelisib; first compound 2 µM) | relative viability (Kobe2602 + Alpelisib; first compound 6.325 µM) | relative viability (Kobe2602 + Alpelisib; first compound 20 µM) | relative viability (Zosuquidar + Pictilisib; first compound 0.01 µM) | relative viability (Zosuquidar + Pictilisib; first compound 0.03162 µM) | relative viability (Zosuquidar + Pictilisib; first compound 0.1 µM) | relative viability (Zosuquidar + Pictilisib; first compound 0.3162 µM) | relative viability (Zosuquidar + Pictilisib; first compound 1 µM)
SW 900 | 0.597 | 0.578 | 0.618 | 0.738 | 0.557 | 0.44 | 0.508 | 0.412 | 0.475 | 0.556 | – | – | – | – | – | – | – | – | – | –
NCI-H358 | 0.278 | 0.293 | 0.281 | 0.359 | 0.335 | 0.226 | 0.224 | 0.214 | 0.218 | 0.233 | 0.799 | 0.836 | 0.677 | 0.884 | 0.827 | 0.339 | 0.349 | 0.218 | 0.366 | 0.304
PC-3 [JPC-3] | 0.493 | 0.493 | 0.462 | 0.46 | 0.453 | 0.782 | 0.886 | – | 0.872 | 0.797 | 1.05 | 1.04 | 0.971 | 1.03 | 1.02 | 0.768 | 0.539 | 0.664 | 0.677 | 0.738
NCI-H1651 | 0.314 | 0.343 | 0.282 | 0.401 | 0.307 | 0.465 | 0.743 | 0.565 | 0.616 | 0.599 | 0.964 | 0.932 | 0.792 | 0.809 | 0.965 | 0.589 | 0.661 | 0.559 | 0.668 | 0.615
HCC-827 | 0.351 | 0.467 | 0.333 | 0.413 | 0.398 | 0.28 | 0.362 | – | 0.36 | 0.309 | 0.951 | 0.875 | 0.951 | 0.936 | 1.07 | 1.08 | 1.14 | 0.774 | 1.05 | 0.994
HCC-366 | 0.61 | 0.674 | 0.623 | 0.718 | 0.575 | 0.351 | 0.393 | 0.336 | 0.305 | 0.354 | 0.364 | 0.493 | 0.309 | 0.429 | 0.496 | 0.154 | 0.185 | 0.15 | 0.151 | 0.195
HARA | 0.408 | – | 0.489 | 0.41 | 0.451 | 0.556 | 0.653 | – | 0.812 | 0.786 | 0.934 | 0.943 | 0.797 | 0.752 | 0.791 | 0.589 | 0.404 | 0.312 | 0.5 | 0.49
NCI-H520 | 0.567 | 0.579 | – | 0.658 | 0.565 | 0.525 | 0.602 | 0.519 | 0.547 | 0.504 | 0.912 | 1.12 | 0.848 | 0.84 | 0.859 | 0.327 | 0.295 | 0.289 | 0.363 | 0.297
NCI-H1299 | – | – | – | – | – | – | – | – | – | – | 1.02 | 1.05 | 1.08 | 1.13 | 1.05 | 0.623 | 0.836 | 0.968 | 0.796 | 0.861
SW 1573 | 0.405 | 0.311 | 0.457 | 0.417 | 0.39 | 0.476 | 0.573 | 0.519 | 0.536 | 0.416 | 0.759 | 0.792 | 0.677 | 0.622 | 0.736 | 0.425 | 0.465 | 0.446 | 0.626 | 0.597
CAL-12T | 0.634 | 0.629 | 0.554 | 0.576 | 0.582 | – | – | – | – | – | 0.92 | 1.39 | 0.67 | 0.981 | 1.19 | 0.349 | 0.494 | – | 0.533 | 0.423
COR-L 105 | 0.547 | 0.404 | 0.409 | 0.478 | 0.437 | 0.606 | 0.764 | 0.582 | 0.735 | 0.69 | 0.771 | 1.08 | 0.78 | 0.973 | 0.938 | 0.404 | 0.383 | 0.418 | 0.492 | 0.351
NCI-H3122 | 0.346 | 0.38 | – | 0.377 | 0.319 | 0.394 | 0.413 | 0.422 | 0.411 | 0.467 | 0.807 | 0.753 | 0.764 | 0.784 | 0.885 | 0.616 | 0.662 | 0.524 | 0.641 | 0.608
NCI-H2228 | 0.291 | 0.338 | 0.256 | 0.47 | 0.257 | – | – | – | – | – | 0.724 | 0.712 | 0.747 | 0.713 | 0.776 | 0.296 | 0.437 | 0.633 | 0.459 | 0.26
RERF-LC-KJ | 0.41 | 0.45 | 0.397 | 0.402 | 0.355 | 0.717 | 0.735 | 0.649 | 0.666 | 0.746 | 0.829 | 0.792 | 0.742 | 0.865 | 0.779 | 0.467 | 0.586 | 0.536 | 0.679 | 0.57

Source: the supplement of paper PMC10307832
